Two compounds from patent US10301297B2, “Substituted nicotinimide inhibitors of BTK and their preparation and use in the treatment of cancer, inflammation and autoimmune disease” (GUANGZHOU INNOCARE PHARMA TECH CO., LTD., priority 2013, dated 2019) can be followed below.

Some results are limits rather than exact numbers.

Test [1] has as its target T1, BTK (Homo sapiens (Human), UniProt Q06187). Description: kinase binding screen (affinity beads, qPCR readout) at 1000 nM. (In general: In qPCR the cycle at which signal appears reflects the starting amount.)
Test [2] concerns the target T1, BTK. Description: ADP-Glo Kinase biochemical assay, IC50 determination of BTK inhibitors. Particulars: head-to-head assays. The protocol:
Biological Properties: IC50 Determination of BTK Inhibitors in ADP-Glo Kinase Biochemical Assay
• Enzyme concentration: 8 ng/5 ul. • ATP concentration: 50 uM • Substrate (peptide) concentration: 0.2 mg/ml. • Reaction buffer composition: 40 mM Tris-HCl pH7.5, 10 mM MgCl2, 2 mM MnCl2, 0.1 mg/mL BSA, 0.05 mM DTT. • Test compound concentration: DMSO≤0.5%. Methods: Compound Dosage Gradient Solution Preparation: […]
1× and 2× assay buffer were made at first. BTK kinase was diluted with 1× assay buffer but substrate was diluted with 2× assay buffer. 1 ul of diluted compound was transferred into 384-well assay plate, and then 2.0 ul of enzyme solution was added, and spun at 2000 rpm for 1 min. This mixture was incubated at 24° C. for 30 mins. 2 ul of peptide substrate/ATP mixture was added into the assay plate to start the reaction. The mixture was mixed thoroughly and then the 384-well plate was spun and incubated at 24° C. for 60 mins. 5.0 ul of ADP-Glo Reagent was added to stop the kinase activity and deplete the ATP unconsumed, and the plate was mixed thoroughly and incubated at 24° C. for 40 min. Then, 10.0 ul of Kinase Detection reagent was added, and the plate was centrifuged and then kept at 24° C. for 30 min. The luminescence signal was read on Envision. […]
All data was analyzed with IDBS XLfit5 software (ID Business Solutions Ltd., UK).
(ADP-Glo turns the ADP formed in a reaction into a luminescent signal.)

For test [3], the target named is YES (Homo sapiens (Human), UniProt P07947). In words: kinase binding screen (affinity beads, qPCR readout) at 1000 nM. Particulars: read-out: % Inhibition @ 1000 nM.
Chain of YES (P07947 whole entry): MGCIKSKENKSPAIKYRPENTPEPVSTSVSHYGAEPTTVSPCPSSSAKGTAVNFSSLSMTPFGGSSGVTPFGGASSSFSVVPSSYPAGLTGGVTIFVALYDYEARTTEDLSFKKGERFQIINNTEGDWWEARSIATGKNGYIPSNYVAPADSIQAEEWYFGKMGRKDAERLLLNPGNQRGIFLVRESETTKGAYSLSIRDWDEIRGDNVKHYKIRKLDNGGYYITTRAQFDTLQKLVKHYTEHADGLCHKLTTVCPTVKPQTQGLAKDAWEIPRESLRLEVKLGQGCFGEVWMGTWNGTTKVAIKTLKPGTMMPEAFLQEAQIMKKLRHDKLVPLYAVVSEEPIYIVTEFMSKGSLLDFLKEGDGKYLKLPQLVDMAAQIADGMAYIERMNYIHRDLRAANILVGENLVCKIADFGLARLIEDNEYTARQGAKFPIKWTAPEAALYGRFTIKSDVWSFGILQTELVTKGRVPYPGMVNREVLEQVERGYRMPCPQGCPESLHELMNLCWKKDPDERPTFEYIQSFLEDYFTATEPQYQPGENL
The target of test [4] is SRC (Homo sapiens (Human), UniProt P12931). The description is as above.
Chain of SRC (P12931 whole entry, looked up): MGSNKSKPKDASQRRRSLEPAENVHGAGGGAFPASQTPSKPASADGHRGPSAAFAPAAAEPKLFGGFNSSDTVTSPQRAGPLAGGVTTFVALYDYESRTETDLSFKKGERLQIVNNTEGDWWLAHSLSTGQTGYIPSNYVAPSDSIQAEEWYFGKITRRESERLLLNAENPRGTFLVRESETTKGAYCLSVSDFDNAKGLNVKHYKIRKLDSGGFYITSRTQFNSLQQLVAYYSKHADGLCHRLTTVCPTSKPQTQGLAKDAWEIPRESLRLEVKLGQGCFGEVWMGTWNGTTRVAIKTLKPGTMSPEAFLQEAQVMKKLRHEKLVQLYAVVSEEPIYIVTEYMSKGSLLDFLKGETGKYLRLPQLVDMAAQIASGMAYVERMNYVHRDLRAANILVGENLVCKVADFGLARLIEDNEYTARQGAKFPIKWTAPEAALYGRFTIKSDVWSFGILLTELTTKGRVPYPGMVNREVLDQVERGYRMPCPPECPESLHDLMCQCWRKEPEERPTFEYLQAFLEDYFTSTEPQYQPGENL
In test [5] the target is BLK (Homo sapiens (Human), UniProt P51451). The description is as above. The following applies: read-out: % Inhibition @ 1000 nM.
Chain of BLK (P51451 whole entry): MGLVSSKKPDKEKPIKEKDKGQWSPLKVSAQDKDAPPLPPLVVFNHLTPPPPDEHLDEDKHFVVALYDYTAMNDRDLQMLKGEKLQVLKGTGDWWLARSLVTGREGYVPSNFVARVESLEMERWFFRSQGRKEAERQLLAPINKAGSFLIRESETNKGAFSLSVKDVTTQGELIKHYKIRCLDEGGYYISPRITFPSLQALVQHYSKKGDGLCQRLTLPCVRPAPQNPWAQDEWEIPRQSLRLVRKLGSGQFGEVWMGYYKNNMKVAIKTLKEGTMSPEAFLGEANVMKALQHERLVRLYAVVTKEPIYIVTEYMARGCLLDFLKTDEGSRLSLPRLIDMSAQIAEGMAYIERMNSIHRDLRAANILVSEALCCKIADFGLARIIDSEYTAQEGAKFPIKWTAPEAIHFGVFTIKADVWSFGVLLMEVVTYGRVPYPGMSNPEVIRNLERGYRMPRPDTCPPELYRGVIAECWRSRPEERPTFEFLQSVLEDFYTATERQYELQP
The target in test [6] is LCK (Homo sapiens (Human), UniProt P06239). The test is described as above. The following applies: read-out: % Inhibition @ 1000 nM.
Chain of LCK (P06239 whole entry): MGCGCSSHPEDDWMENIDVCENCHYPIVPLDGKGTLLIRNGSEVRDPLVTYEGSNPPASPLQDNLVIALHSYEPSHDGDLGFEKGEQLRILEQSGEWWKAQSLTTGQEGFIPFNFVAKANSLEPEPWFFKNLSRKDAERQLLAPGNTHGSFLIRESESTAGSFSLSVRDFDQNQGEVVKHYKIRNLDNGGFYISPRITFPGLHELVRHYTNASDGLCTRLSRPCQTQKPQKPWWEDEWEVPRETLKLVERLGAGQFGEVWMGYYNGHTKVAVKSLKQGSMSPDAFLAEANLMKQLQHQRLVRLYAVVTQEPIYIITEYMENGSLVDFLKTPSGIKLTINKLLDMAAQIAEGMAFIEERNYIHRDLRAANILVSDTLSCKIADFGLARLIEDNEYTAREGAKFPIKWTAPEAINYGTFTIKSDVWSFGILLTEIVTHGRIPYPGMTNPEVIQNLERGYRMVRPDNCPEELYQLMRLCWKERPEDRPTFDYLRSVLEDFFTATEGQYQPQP
Test [7] addresses LYN (Homo sapiens (Human), UniProt P07948). The test is described as above. The following applies: read-out: % Inhibition @ 1000 nM.
For test [8], the target named is EGFR (Homo sapiens (Human), UniProt P00533). The test is described as above. The following applies: read-out: % Inhibition @ 1000 nM.
The target in test [9] is HCK (Homo sapiens (Human), UniProt P08631). The test is described as above. Particulars: read-out: % Inhibition @ 1000 nM.
Chain of HCK (P08631 whole entry): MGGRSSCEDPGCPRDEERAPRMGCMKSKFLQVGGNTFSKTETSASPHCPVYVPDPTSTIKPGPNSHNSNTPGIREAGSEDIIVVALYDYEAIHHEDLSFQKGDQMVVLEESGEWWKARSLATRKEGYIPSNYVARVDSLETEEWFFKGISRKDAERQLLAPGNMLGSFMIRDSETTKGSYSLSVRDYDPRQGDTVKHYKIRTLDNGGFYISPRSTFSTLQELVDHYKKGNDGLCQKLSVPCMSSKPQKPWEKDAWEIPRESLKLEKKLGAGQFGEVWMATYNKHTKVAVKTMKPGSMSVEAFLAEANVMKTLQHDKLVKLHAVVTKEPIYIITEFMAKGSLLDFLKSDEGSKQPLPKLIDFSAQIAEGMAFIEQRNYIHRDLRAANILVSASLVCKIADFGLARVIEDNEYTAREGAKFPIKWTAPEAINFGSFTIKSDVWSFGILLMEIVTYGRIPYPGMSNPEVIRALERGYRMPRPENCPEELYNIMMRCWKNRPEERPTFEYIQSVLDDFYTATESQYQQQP
In test [10] the target is FGR (Homo sapiens (Human), UniProt P09769). Described as above. Particulars: read-out: % Inhibition @ 1000 nM.
Chain of FGR (P09769 whole entry): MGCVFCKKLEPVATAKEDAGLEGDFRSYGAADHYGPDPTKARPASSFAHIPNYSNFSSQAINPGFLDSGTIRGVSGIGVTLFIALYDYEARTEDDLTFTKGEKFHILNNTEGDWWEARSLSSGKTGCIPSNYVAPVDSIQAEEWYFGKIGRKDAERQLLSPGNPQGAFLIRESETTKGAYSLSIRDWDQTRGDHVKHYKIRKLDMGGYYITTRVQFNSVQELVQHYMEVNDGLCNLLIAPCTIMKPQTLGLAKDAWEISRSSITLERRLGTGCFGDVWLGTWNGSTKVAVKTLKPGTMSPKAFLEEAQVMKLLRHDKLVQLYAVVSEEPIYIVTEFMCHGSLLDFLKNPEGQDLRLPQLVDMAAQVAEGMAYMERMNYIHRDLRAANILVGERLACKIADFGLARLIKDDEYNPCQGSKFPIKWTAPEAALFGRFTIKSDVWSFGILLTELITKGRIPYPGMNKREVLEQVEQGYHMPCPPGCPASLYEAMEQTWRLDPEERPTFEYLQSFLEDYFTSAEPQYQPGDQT
Test [11] has as its target FYN (Homo sapiens (Human), UniProt P06241). The description is as above. The following applies: read-out: % Inhibition @ 1000 nM.

T1 sequence (Q06187 whole entry): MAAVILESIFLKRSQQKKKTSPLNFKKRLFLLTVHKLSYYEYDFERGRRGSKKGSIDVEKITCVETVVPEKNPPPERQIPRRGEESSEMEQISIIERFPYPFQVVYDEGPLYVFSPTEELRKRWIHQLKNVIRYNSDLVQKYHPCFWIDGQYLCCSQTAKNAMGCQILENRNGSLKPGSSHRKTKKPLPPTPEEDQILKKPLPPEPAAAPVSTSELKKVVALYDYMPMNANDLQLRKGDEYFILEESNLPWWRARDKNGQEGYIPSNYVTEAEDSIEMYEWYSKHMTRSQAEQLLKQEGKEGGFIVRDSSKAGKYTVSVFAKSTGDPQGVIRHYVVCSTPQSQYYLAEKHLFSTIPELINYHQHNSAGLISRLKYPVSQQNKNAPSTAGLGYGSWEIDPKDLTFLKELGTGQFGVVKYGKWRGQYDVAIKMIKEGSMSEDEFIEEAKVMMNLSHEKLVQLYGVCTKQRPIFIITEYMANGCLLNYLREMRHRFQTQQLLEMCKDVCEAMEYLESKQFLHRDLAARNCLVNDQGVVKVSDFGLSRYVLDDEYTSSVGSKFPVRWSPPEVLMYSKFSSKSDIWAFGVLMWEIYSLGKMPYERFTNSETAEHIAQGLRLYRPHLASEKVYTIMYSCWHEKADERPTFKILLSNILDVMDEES
Chain of LYN (P07948 whole entry): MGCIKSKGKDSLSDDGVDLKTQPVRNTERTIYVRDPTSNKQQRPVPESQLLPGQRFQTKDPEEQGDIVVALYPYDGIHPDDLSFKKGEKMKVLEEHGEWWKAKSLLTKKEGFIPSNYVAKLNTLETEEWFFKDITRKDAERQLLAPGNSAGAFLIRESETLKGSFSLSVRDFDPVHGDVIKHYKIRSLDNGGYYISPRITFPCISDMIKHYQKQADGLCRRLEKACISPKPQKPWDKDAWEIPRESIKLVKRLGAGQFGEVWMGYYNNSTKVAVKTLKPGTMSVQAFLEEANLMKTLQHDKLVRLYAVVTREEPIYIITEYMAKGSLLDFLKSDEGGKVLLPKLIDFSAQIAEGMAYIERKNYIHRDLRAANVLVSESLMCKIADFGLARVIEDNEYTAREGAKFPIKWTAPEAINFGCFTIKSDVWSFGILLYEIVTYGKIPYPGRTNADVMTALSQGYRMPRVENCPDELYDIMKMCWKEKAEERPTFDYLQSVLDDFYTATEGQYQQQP
Chain of FYN (P06241 whole entry): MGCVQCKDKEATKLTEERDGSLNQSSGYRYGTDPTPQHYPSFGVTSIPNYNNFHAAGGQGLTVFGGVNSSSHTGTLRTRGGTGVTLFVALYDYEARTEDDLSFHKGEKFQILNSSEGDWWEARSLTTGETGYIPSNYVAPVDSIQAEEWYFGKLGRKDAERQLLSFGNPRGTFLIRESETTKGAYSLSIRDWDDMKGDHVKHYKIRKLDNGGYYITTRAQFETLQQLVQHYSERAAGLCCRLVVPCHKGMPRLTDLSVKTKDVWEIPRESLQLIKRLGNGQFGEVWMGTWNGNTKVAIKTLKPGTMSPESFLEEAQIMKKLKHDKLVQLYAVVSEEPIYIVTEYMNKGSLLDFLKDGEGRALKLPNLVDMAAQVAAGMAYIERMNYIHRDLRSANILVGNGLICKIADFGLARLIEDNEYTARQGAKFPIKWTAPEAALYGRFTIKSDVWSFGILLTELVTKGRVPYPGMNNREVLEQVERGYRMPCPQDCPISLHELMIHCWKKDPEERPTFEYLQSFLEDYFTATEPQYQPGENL

Usually inhibition stands for the share of the control response that was lost under treatment. Take `C=CC(=O)N1CCN(c2ccc(C(N)=O)c(-c3ccc(Oc4ccccc4)cc3)n2)CC1` [Example 5, 6-(4-acryloylpiperazin-1-yl)-2-(4-phenoxyphenyl)nicotinamide]: the inhibition at 1 µM in test [1] is 99.7%; in [3], 6%; in [4] (SRC, 1000 nM) it was 33%; in [5], 46%; in [6], 0%; in test [7], 7%. Further, the inhibition at 1 µM in test [8] turned out to be 23%; in test [9] it was 21%; in test [10], 0%; in test [11] it was 5%. In [2] (unit not printed in Table 2, read-out: BTK in vitro potency), the IC50 was determined as 4.7 nM. In test [2] (in vitro BTK potency), the “improvement in potency over Analogs 1 and 2” value is reported as about 100 ×. Moreover, the “Fold Difference” value in test [4] (BTK vs SRC) was over 100x.
`C=CC(=O)N1CCC(c2ccc(C(N)=O)c(-c3ccc(Oc4ccccc4)cc3)n2)CC1` [Example 3, 6-(1-acryloylpiperidin-4-yl)-2-(4-phenoxyphenyl)nicotinamide]: the inhibition at 1 µM in test [3] came to 8%; in test [5], 51%; in test [6] it was 11%; in test [7], 3%; in test [9] it was 0%; in test [10], 0%. The inhibition at 1 µM in test [11] came out at 0%.
